We go through two compounds from patent US20030220386A1, “Delta 1-pyrrolines for use as pesticides” (priority 2000, published 2003).

Series [1] relates to larvae of the mustard beetle (Phaedon cochleariae). Description: Phaedon larvae test. Particulars: 1000 ppm, cabbage leaves dipped.
The test system of series [2] is larvae of the armyworm (Spodoptera exigua). Description: Spodoptera exigua test. It is filed as in vivo. Particulars: 500 ppm, cabbage leaves dipped.
For series [3], the system named is peach aphid (Myzus persicae). Description: Myzus test. It is filed as in vivo. As to conditions: 500 ppm, cabbage leaves dipped.
Series [4] deals with Amblyomma hebraeum nymphs. Description: Test with polyphagous tick nymphs, dip treatment. Particulars: nymphs immersed for 1 minute; after 4 weeks. The class given is in vivo. As for the experimental part:
(§1) 20 mg of active compound are dissolved in one ml of dimethyl sulphoxide. To prepare a suitable formulation, the solution of active compound is diluted with water to the concentration desired in each case.
10 nymphs which have sucked themselves full are immersed for 1 minute into the preparation of active compound to be tested. The animals are transferred to Petri dishes (Ø 9.5 cm) fitted with filter discs and covered. After 4 weeks of storage in a climatized room, the mortality is determined.
100% means that none of the animals has undergone normal ecdysis. 0% means that all animals have undergone ecdysis.

In series [5] the test system is larvae of the armyworm (Spodoptera frugiperda). Description: Spodoptera frugiperda test. It is filed as in vivo. Particulars: cabbage leaves dipped.
The test system of a further series is Lucilia cuprina larvae. Description: Blowfly larvae test/Development-inhibitory action. The class given is in vivo. As to conditions: 100 ppm; mortality of the larvae after 48 hours. As for the experimental part: as §1
About 20 Lucilia cuprina larvae are introduced into a test tube which contains about 1 cm^3 of horsemeat and 0.5 ml of the preparation of active compound to be tested. The activity of the preparation of active compound is determined after 48 hours as the mortality of the larvae in %.
The test tubes are then transferred into a beaker whose bottom is covered with sand. After a further 12 days, the test tubes are removed and the pupae and flies are counted. The development-inhibitory action is stated as inhibition of hatching in % (ratio of pupae to flies that have hatched) after 1.5 times the development period of an untreated control.

The test system of series [6] is greenhouse red spider mite (Tetranychus urticae). Description: Tetranychus test (OP-resistant/dip treatment). The class given is in vivo. Particulars: 100 ppm, bean plants dipped. The procedure: (§2) After the desired period of time, the activity in % is determined.
A short description of series [7]: logP determination by HPLC (reversed-phase C 18), EEC Directive 79/831 Annex V.A8. The class given is physicochemical. Particulars: reversed-phase C18 HPLC column, pH 2.3, 0.1% aqueous phosphoric acid/acetonitrile, 43° C., read-out: log P (pH 2.3). The procedure: The logP values given in the tables and preparation examples above are determined in accordance with EEC Directive 79/831 Annex V.A8 by HPLC (High Performance Liquid Chromatography) using a reversed-phase column (C 18). Temperature: 43° C.
In the acidic range, the determination is carried out at pH 2.3 using the mobile phases 0.1% aqueous phosphoric acid and acetonitrile; linear gradient from 10% acetonitrile to 90% acetonitrile.
In the neutral range, the determination is carried out at pH 7.5 using the mobile phases 0.01 molar aqueous phosphate buffer solution and acetonitrile; linear gradient from 10% acetonitrile to 90% acetonitrile.
Calibration is carried out using unbranched alkan-2-ones (of 3 to 16 carbon atoms) with known logP values (determination of the logP values by the retention times using linear interpolation between two successive alkanones).

Series [8] relates to fruit tree spider mite (Panonychus ulmi). Description: Panonychus test. Particulars: 200 ppm, plum trees sprayed. It is filed as in vivo. The procedure: as §2
For series [9], the system named is caterpillars of the diamondback moth (Plutella xylostella). Description: Plutella test. It is filed as in vivo. As to conditions: cabbage leaves dipped.
For series [10], the system named is cotton aphid (Aphis gossypii). Description: Aphis gossypii test. It is filed as in vivo. Particulars: 100 ppm, cotton leaves dipped.
The next series has as its system Meloidogyne incognita. The series can be described thus: Meloidogyne test. As to conditions: 20 ppm, nematicidal action by formation of galls on lettuce roots. It is filed as in vivo. The procedure:
Vessels are filled with sand, solution of active compound, Meloidogyne incognita egg/larvae suspension and lettuce seeds. The lettuce seeds germinate and the plants develop. On the roots, galls are formed.
After the desired period of time, the nematicidal action is determined in % by the formation of galls. 100% means that no galls were found; 0% means that the number of galls on the treated plants corresponds to that of the untreated control.

The subject of series [11] is Heliothis virescens caterpillars. The series can be described thus: Heliothis virescens test. Particulars: 5 ppm, soya bean shoots dipped. It is filed as in vivo.

Regarding `O=S(=O)(Oc1ccc([C@H]2CCC(c3c(F)cccc3F)=N2)cc1)C(F)(F)F` [I-2, (2R)-4-[5-(2,6-Difluorophenyl)-3,4-dihydro-2H-pyrrol-2-yl]phenyl trifluoromethanesulphonate], the figures for the “Kill rate in % after 7 days” value in series [1], in series [6] and in [8] were 100%, 98% and 98%, respectively. Further, the “Kill rate in % after 6 days” value in [2] is 100%; in series [3] it was 98%; in [5] (500 ppm), 95%; in series [9] (500 ppm) it was 100%; in [10] it was 90%. The “activity (mortality / no normal ecdysis)” value in [4] is recorded as “good activity”. Also, the “Action in % after 48 hours” value with Lucilia cuprina larvae is 100%. In [7], the chromatographic logP is 3.55.

Take `O=S(=O)(Oc1ccc(-c2ccc([C@H]3CCC(c4c(F)cccc4F)=N3)cc2)cc1)C(F)(F)F` [I-5, 4′-[(2R)-5-(2,6-difluorophenyl)-3,4-dihydro-2H-pyrrol-2-yl]-1,1′-biphenyl-4-yl trifluoromethanesulphonate]: in series [1], the “Kill rate in % after 7 days” value amounted to 100%. Also, the “activity (mortality / no normal ecdysis)” value in [4] was “good activity”. The “Kill rate in % after 6 days” value in series [5] (1000 ppm), in series [9] (5 ppm) and in series [11] was 100% each time. In addition, in the series on Meloidogyne incognita, the “Kill rate in % after 14 days” value is recorded as 100%. For the same compound, the “Action in % after 48 hours” value with Lucilia cuprina larvae was 100%. Besides, the chromatographic logP in [7] came out at 4.27.
